Measured values reported in ChEMBL document CHEMBL1158144, “Cacalol derivatives from Roldana angulifolia” (J Nat Prod, 2006).

How the values were obtained:
Type in all cases: functional, cell-based
[1] = tested on: SK-LU-1; assay: Cytotoxicity against human SKLU1 cells
[2] = tested on: PC-3; assay: Cytotoxicity against human PC-3 cells
[3] = tested on: U-251; assay: Cytotoxicity against human U251 cells
[4] = tested on: HCT-15; assay: Cytotoxicity against human HCT-15 cells
[5] = tested on: MCF7; assay: Cytotoxicity against human MCF7 cells
[6] = tested on: K562; assay: Cytotoxicity against human K-562 cells

Measured: IC50

COc1c2c(c(C=O)c3c(COC(C)=O)coc13)[C@@H](C)CC=C2
> 10 µM: all assays above

COc1c2c3c(c4c(COC(C)=O)coc14)C(=O)OC[C@H]3CC=C2 [ANGULIFOLIDE]
> 10 µM: all assays above

COc1c2c(c(C=O)c3c(CO)coc13)[C@@H](C)CC=C2
> 10 µM: all assays above
